Laboratory results from patent US20220397567A1, “NOVEL APPROACH FOR INCREASING CONTRACTILITY IN PATIENTS WITH SYSTOLIC HEART FAILURE” (THE TRUSTEES OF COLUMBIA UNIVERSITY IN THE CITY OF NEW YORK, priority 2019, published 2022).
Several values for one entry are separate records, joined by “and”; a condition that tells them apart may be missing. Identical values can stand only once. Entries after “also recorded” stand apart in the source; their conditions may differ.

Columns and labels:
[1] = system: CaV1.2 (α1C+β2B) channels in HEK293T cells; assay: Perforated whole-cell patch clamp of Ba2+ current, forskolin stimulation of CaV1.2 reconstituted in HEK293T cells; assay type: cell-based, rabbit α1C, human β2B, mouse Rad
Text: The robust heterologous reconstitution of PKA regulation of L-type Ca^2+ currents has been long pursued as a crucial step. […] To preserve the normal intracellular milieu and signaling cascades, the inventors used perforated, whole-cell patch clamp to assess function. The inventors used Ba^2+ as the charge carrier to minimize inactivation and depolarized the membrane potential with either a voltage step to 0 mV or a voltage ramp from −60 mV to +60 mV.
In the above, with regard to clone construction and cell culture, all mouse N-terminal-GFP-tagged mouse Rad (accession #XM_006531206) constructs in a pEGFP-C1 vector were generated by gene-synthesis (Gene Universal). The human CaV2.2 (pSAD442-1) was a gift from Diane Lipscombe (Addgene plasmid #62574). HEK293T cells were cultured in DMEM with 10% FBS, 1% Pen/Strep, and transfected with 3 μg rabbit α1C (accession #X15539) or α1B (for CaV2.2 experiments), 3 μg human β2B (NM-201590.3) and 0.5 μg N-terminal-GFP-tagged mouse Rad using Lipofectamine 2000 (Thermo Fisher Scientific). The media was changed 4-6 hours after transfection. The cells were split onto coverslips coated with attachment factor protein (Gibco). Electrophysiological recordings were carried out at room temperature 24-48 hours after transfection.
For HEK293T cell experiments involving the forskolin-induced stimulation of CaV1.2 and CaV2.2 currents, perforated whole-cell patch clamp technique was implemented to minimize current run-down and preserve the intracellular milieu. Amphotericin B (Sigma A9528) was initially dissolved in DMSO (20 mg/ml) and used in the pipette solution at a final concentration of 200 μg/ml. The tip of the pipette was filled with amphotericin-free solution (in mM): 80 Cesium Gluconate, 40 CsCI, 10 HEPES, 10 BAPTA, 1 MgCl2, 1 Mg-ATP, pH adjusted to 7.2 with CsOH. The pipette was backfilled with (in mM): 125 CsCI, 10 HEPES, 4 CaCl2, 1 MgCl2, pH-7.2 with CsOH; containing amphotericin, 200 μg/ml. CaCl2 (4 mM) was added to the intracellular patch electrode solution to enable the detection of conversion from perforated to ruptured configuration. The external solution contained (in mM): 130 tetraethylammonium methanesulfonate, 10 HEPES, 1 MgCl2, 10 (with Rad expression) or 2 (without Rad expression) BaCI2, 5 Glucose, pH adjusted to pH 7.4 with CsOH. For experiments with HEK293T cells, in addition to step protocols, we used a ramp protocol with a 200 ms voltage ramp from −60 mV (or −70 mV for CaV1.3) to +60 mV applied every 10 s- to monitor the near-steady-state I-V relationship. All experiments were performed at room temperature, 22±1° C. Cells were selected based on co-transfection of a vector containing GFP in the absence of Rad, and GFP-conjugated Rad for the experiments with Rad transfected. For both cardiomyocytes and HEK293 cells, cells without a stable baseline (potentially due to run-down or run-up) were not studied.
The voltage steps protocol used in cardiomyocytes studies evaluated IIpeak=Ipeak (V), which was recalculated in […] to G=G(V) as G=I/(V−Erev). For HEK cells experiments, the inventors used a ramp protocol (FIG. 17B). The experimental records were I=I(t), where t=time. The inventors transformed these records to I=I(V), which were then further transformed to G=G(V) in […] (FIG. 17B).

[2] = system: CaV1.3 (α1D+β2B) channels in HEK293T cells; assay: Perforated whole-cell patch clamp of Ba2+ current, forskolin stimulation of CaV1.3 in HEK293T cells; assay type: cell-based; conditions: cells expressing α1D+β2B+Rad
Protocol: In adrenal chromaffin cells and the sinus node cells of the heart, L-type CaV1.3 channels are robustly stimulated by PKA. […] Thus, like CaV1.2, Rad is the missing ingredient. For HEK293T cell experiments involving the forskolin-induced stimulation of CaV1.2 and CaV2.2 currents, perforated whole-cell patch clamp technique was implemented to minimize current run-down and preserve the intracellular milieu. Amphotericin B (Sigma A9528) was initially dissolved in DMSO (20 mg/ml) and used in the pipette solution at a final concentration of 200 μg/ml. The tip of the pipette was filled with amphotericin-free solution (in mM): 80 Cesium Gluconate, 40 CsCI, 10 HEPES, 10 BAPTA, 1 MgCl2, 1 Mg-ATP, pH adjusted to 7.2 with CsOH. The pipette was backfilled with (in mM): 125 CsCI, 10 HEPES, 4 CaCl2, 1 MgCl2, pH-7.2 with CsOH; containing amphotericin, 200 μg/ml. CaCl2 (4 mM) was added to the intracellular patch electrode solution to enable the detection of conversion from perforated to ruptured configuration. […] For experiments with HEK293T cells, in addition to step protocols, we used a ramp protocol with a 200 ms voltage ramp from -60 mV (or -70 mV for CaV1.3) to +60 mV applied every 10 s- to monitor the near-steady-state I-V relationship. All experiments were performed at room temperature, 22±1° C. Cells were selected based on co-transfection of a vector containing GFP in the absence of Rad, and GFP-conjugated Rad for the experiments with Rad transfected. For both cardiomyocytes and HEK293 cells, cells without a stable baseline (potentially due to run-down or run-up) were not studied. The voltage steps protocol used in cardiomyocytes studies evaluated […]), which was recalculated in […] to G=G(V) as […]). For HEK cells experiments, the inventors used a ramp protocol (FIG. 17B). The experimental records were I=I(t), where t=time. The inventors transformed these records to I=I(V), which were then further transformed to G=G(V) in […]). The parameters of voltage-dependent activation were obtained using a modified Boltzmann distribution. […]

[3] = system: CaV2.2 (α1B+β2B) channels in HEK cells; assay: Perforated whole-cell patch clamp of Ba2+ current, forskolin stimulation of CaV2.2 in HEK cells; assay type: cell-based, human
Text: N-type Ca^2+ channels (CaV2.2) are widely expressed, play an essential role in neurotransmitter release, and are targets for the development of drugs to relieve chronic pain. The inventors expressed the CaV2.2 α1B subunit with β2B and Rad in HEK cells. […] Attenuating binding of Rad […] prevented the forskolin-induced modulation of CaV2.2 current (FIG. 19F). In the above, with regard to clone construction and cell culture, all mouse N-terminal-GFP-tagged mouse Rad (accession #XM_006531206) constructs in a pEGFP-C1 vector were generated by gene-synthesis (Gene Universal). The human CaV2.2 (pSAD442-1) was a gift from Diane Lipscombe (Addgene plasmid #62574). […] The media was changed 4-6 hours after transfection. The cells were split onto coverslips coated with attachment factor protein (Gibco). Electrophysiological recordings were carried out at room temperature 24-48 hours after transfection. For HEK293T cell experiments involving the forskolin-induced stimulation of CaV1.2 and CaV2.2 currents, perforated whole-cell patch clamp technique was implemented to minimize current run-down and preserve the intracellular milieu. Amphotericin B (Sigma A9528) was initially dissolved in DMSO (20 mg/ml) and used in the pipette solution at a final concentration of 200 μg/ml. The tip of the pipette was filled with amphotericin-free solution (in mM): 80 Cesium Gluconate, 40 CsCI, 10 HEPES, 10 BAPTA, 1 MgCl2, 1 Mg-ATP, pH adjusted to 7.2 with CsOH. The pipette was backfilled with (in mM): 125 CsCI, 10 HEPES, 4 CaCl2, 1 MgCl2, pH-7.2 with CsOH; containing amphotericin, 200 μg/ml. CaCl2 (4 mM) was added to the intracellular patch electrode solution to enable the detection of conversion from perforated to ruptured configuration. […] For experiments with HEK293T cells, in addition to step protocols, we used a ramp protocol with a 200 ms voltage ramp from -60 mV (or -70 mV for CaV1.3) to +60 mV applied every 10 s- to monitor the near-steady-state I-V relationship. All experiments were performed at room temperature, 22±1° C. Cells were selected based on co-transfection of a vector containing GFP in the absence of Rad, and GFP-conjugated Rad for the experiments with Rad transfected. For both cardiomyocytes and HEK293 cells, cells without a stable baseline (potentially due to run-down or run-up) were not studied. The voltage steps protocol used in cardiomyocytes studies evaluated […]), which was recalculated in […] to G=G(V) as […]). For HEK cells experiments, the inventors used a ramp protocol (FIG. 17B). The experimental records were I=I(t), where t=time. The inventors transformed these records to I=I(V), which were then further transformed to G=G(V) in […]). The parameters of voltage-dependent activation were obtained using a modified Boltzmann distribution. […]

[4] = system: CaV1.2 channels in cardiomyocytes; assay: Whole-cell patch clamp of nisoldipine-insensitive Ca2+ current in cardiomyocytes of transgenic mice; assay type: cell-based, mouse
Text: With regard to the isolation of adult cardiac myocytes, mice ventricular myocytes were isolated by enzymatic digestion using a Langendorff perfusion apparatus. Cardiomyocytes were isolated from 8-12 week-old non-transgenic and transgenic mice.
With regard to whole cell patch clamp electrophysiology, isolated cardiomyocytes or HEK cells on glass 8×8 mm coverslips were placed in Bioptechs Delta T Dishes filled with solution containing (in mM): 112 NaCl, 5.4 KCl, 1.7 NaH2PO4. 1.6 MgCl2, 20.4 HEPES (pH 7.2), 30 Taurine, 2 DL-Carnitine, 10.3 Creatine, 5.4 Glucose. The petri dishes were mounted on the stage of an inverted microscope and served as a perfusion chamber. After establishing a seal and achieving whole-cell configuration, external solutions were changed by fast local perfusion method.
For cardiomyocytes, pipette resistance was between 1-3 ma Membrane currents were measured by conventional (ruptured) whole-cell patch-clamp method using a MultiClamp 700B or Axopath200B amplifier and pCLAMP 10.7 software (Molecular Devices). Capacitance transients and series resistance were compensated. Voltage was corrected for liquid junction potential (−10 mV) during analysis. Leak currents were subtracted by a P/4 protocol. […]

[5] = system: CaV1.2 neighbourhood proteins (Rad, PKA catalytic subunit, Sorbs2); assay: APEX2 proximity labeling with TMT SPS MS3 in isolated cardiomyocytes, isoproterenol vs. no isoproterenol; assay type: cell-based, mouse; conditions: for decrease in Rad (proximity labeling, iso vs. no iso) / increase in PKA catalytic subunit (proximity labeling, iso vs. no iso): 1 μM isoproterenol, 10 minutes
Protocol: Thus, proximity-labeling in cardiomyocytes treated with isoproterenol was compared to untreated controls. Cardiomyocytes were enzymatically isolated from two α1C-APEX2 mice, mixed, loaded with biotin-phenol and exposed to isoproterenol or vehicle for 10 minutes at room temperature. For the final minute, labeling was initiated with H2O2. This was repeated for myocytes from 4 additional sets of mice (total: 5 sets of biological replicates; 10 mice). Biotinylated proteins were purified and detected using TMT SPS MS^3. The isobaric labeling allowed simultaneous quantification of all proteins measured rather than just a select subset, thus enabling statistical analysis of relative enrichment between vehicle and isoproterenol treatment. Candidates in the upper left quadrant have reduced labeling (likely indicating reduced proximity) after isoproterenol and candidates in the upper right quadrant have increased labeling (likely indicating increased proximity) after isoproterenol. Mitochondrial/nuclear proteins were removed from the analysis.
For the proximity labeling, isolated ventricular cardiomyocytes were incubated in labeling solution with 0.5 μM biotin-phenol (Iris-biotech) for 30 minutes. During the final 10 minutes of labeling, 1 μM isoproterenol (Sigma 15627) was added. To initiate labeling, H2O2 (Sigma H1009) was added to a final concentration of 1 mM for 1 min Exactly 1 minute after H2O2 treatment, the cells were washed three times with cold quenching solution containing (in mM) 10 Sodium ascorbate (VWR 95035-692), 5 Trolox (Sigma 238813), and 10 Sodium azide (Sigma S2002). After the cells were harvested by centrifugation, the quenching solution was aspirated and the pellet was flash-frozen and stored at −80° C. until streptavidin pull-down.
With regard to the processing of biotinylated proteins for mass spectrometry, proteins were precipitated with Trichloroacetic acid (TCA; Sigma T9159) and then centrifuged at 21,130×g at 4° C. for 10 minutes. The pellet was washed with −20° C. cold acetone (Sigma 650501), vortexed, and centrifuged at 21,130×g at 4° C. for 10 minutes. Following centrifugation, acetone was aspirated and the pellet was acetone-washed again three more times.

[6] = system: Rad in CaV1.2 neighbourhood; assay: APEX2 proximity labeling with TMT mass spectrometry in Langendorff-perfused α1C-APEX2 hearts; design: species or system mouse; conditions: Langendorff-perfused α1C-APEX2 whole hearts; 1 μM isoproterenol, 5 minutes
Protocol: The inventors also probed the impact of isoproterenol on the CaV1.2 proteome signature in Langendorff-perfused whole hearts (FIG. 9B), tracking 2,610 proteins from 10 hearts in parallel (FIG. 6K, FIG. 15C and FIG. 16A). The inventors monitored phospholamban phosphorylation to confirm that the β-adrenergic signaling pathway in cardiomyocytes is preserved in the presence of biotin-phenol and H2O2 (FIG. 14C and FIG. 14D).
For biotinylation in Langendorff-perfused hearts, mice were injected with 5 mg/kg propranolol-HCl (Sigma PHR1308) to suppress adrenergic stimulation during the isoflurane anesthesia and cardiectomy. Hearts were retrograde perfused with Krebs' solution for 10 minutes prior to addition of biotin-phenol for 15 minutes. During the final 5 minutes, 1 μM Isoproterenol (Sigma 1351005) or vehicle was added to the perfusate. The hearts were then perfused with 1 mM H2O2 for 1 minute, followed by 3-minutes of perfusion of quenching solution. Electrocardiograms were monitored throughout the experiment to ensure viability of the preparation and an isoproterenol-induced increase in heart rate. […]

[7] = system: Rad; assay: Whole cell proteomics (TMT SPS MS3) of non-transgenic cardiomyocytes, isoproterenol vs. no isoproterenol; assay type: cell-based, mouse; conditions: non-transgenic (NTG) mice cardiomyocytes; 10-minute isoproterenol
Protocol: With regard to whole cell proteomics, specifically cell lysis, protein digest and TMT labeling mass spectrometry analysis, the cells were lysed by homogenization (QIAshredder cartridges, Qiagen) in lysis buffer (2% SDS, 150 mM NaCl, 50 mM Tris pH 7.4). Lysates were reduced with 5 mM DTT, alkylated with 15 mM iodoacetamide for 30 minutes in the dark, alkylation reactions quenched with freshly prepared DTT added to a concentration of 50 mM and proteins precipitated by methanol/chloroform precipitation. Digests were carried out in 1M urea freshly prepared in 200 mM EPPS pH 8.5 in presence of 2% acetonitrile (v/v) with LysC (Wako, 2 mg/ml, used 1:75 w/w protease:substrates during digest) for 3 hours at room temperature and after subsequent addition of trypsin (Promega #V5111, stock 1:100 w/w protease:substrates) over night at 37° C. Missed cleavage rate was assayed from a small aliquot by mass spectrometry. […]
For the mass spectrometry analysis, data collection followed a MultiNotch MS^3 TMT method using an Orbitrap Lumos mass spectrometer coupled to a Proxeon EASY-nLC 1200 liquid chromatography (LC) system (both Thermo Fisher Scientific). […] In order to obtain quantitative information, MS^3 precursors were fragmented by high-energy collision-induced dissociation (HCD) and analyzed in the Orbitrap at a resolution of 50,000 at 200 Th. […]

[8] = system: CFP-tagged Rad localization in cardiomyocytes; assay: Confocal fluorescence of CFP-Rad at membrane and in cytosol of cardiomyocytes before and after isoproterenol; assay type: cell-based; conditions: CFP-Rad adenovirus-infected rat cardiomyocytes; 5 minutes after superfusion
Text: Mass spectrometry identified phosphorylated proteins from biotinylated, streptavidin-purified samples from APEX2 mice, and from whole hearts of wild-type (WT) mice treated with isoproterenol. […] Rad, a member of the RGK family of GTP-binding proteins, is an inhibitor of voltage-gated Ca^2+ channels and is also a PKA target. […] To further explore whether β-agonists can alter membrane-localization of Rad relative, rat cardiomyocytes were infected with adenoviruses harboring cyan fluorescent protein (CFP)-tagged Rad. The fluorescence of CFP-Rad at the membrane and in the cytosol was quantified before and after isoproterenol. The number of exposures were limited to avoid photo-bleaching.

[9] = HEK cells expressing 35-mutant α1C+28-mutant β2B+Rad
[10] = cells expressing α1C+β2B+Rad, forskolin vs. no forskolin
[11] = CaV2.2 α1B+β2B co-expressed with Rad
[12] = CaV2.2 α1B+β2B co-expressed with Rem

Question: Which results are given for C=C[C@@]1(C)CC(=O)[C@]2(O)[C@@]3(C)[C@@H](O)CCC(C)(C)[C@@H]3[C@H](O)[C@H](OC(C)=O)[C@@]2(C)O1 [forskolin]?
Answer: increase of Gmax, as much as [1, 9]: ≤ 3.1 fold; increase of Gmax, mean [1, 9]: 1.9 fold; shift of V50 for activation [1, 9]: −3.3 mV; increase of Gmax, mean ([1]; cells expressing 9*-α1C, β2B and Rad): 1.6 fold; shift of V50 for activation ([1]; cells expressing α1C+β2B+Rad): −5 mV; increase of maximal conductance (Gmax), as much as [1, 10]: ≤ 4.5 fold; increase of maximal conductance (Gmax), mean [1, 10]: 1.5 fold and 1.6 fold; increase of Gmax, as much as [2]: ≤ 2.3 fold; increase of Gmax, mean [2]: 1.9 fold; shift of V50 for activation [2]: −4.3 mV; increase of Gmax, mean [3, 11]: 2.2 fold; shift of V50 for activation [3, 11]: −3.7 mV; increase of Gmax [3, 12]: 1.6 fold; shift of V50 for activation [3, 12]: −4.2 mV; increase of Gmax, mean ([4]; 9* exon-containing CaV1.2 channels): 1.4 fold; increase of nisoldipine-insensitive maximal conductance (Gmax), mean ([4]; transgenic pWT α1C cardiomyocytes, 10 μM forskolin): 1.4 fold

Question: How did the “decrease in the amount of Rad, all three approaches” value ([5]; α1C-APEX2 and β2B-APEX2 cardiomyocytes and α1C-APEX2 whole hearts) turn out when CC(C)NCC(O)c1ccc(O)c(O)c1 (centres unmarked) [isoproterenol] was run?
Answer: 30-50%

Question: And the “decrease in Rad (proximity labeling, iso vs. no iso)” value ([5]; α1C-APEX2 cardiomyocytes)?
Answer: ~50%

Question: What about the “increase in PKA catalytic subunit (proximity labeling, iso vs. no iso)” value ([5]; α1C-APEX2 cardiomyocytes) of the same compound?
Answer: 50%

Question: What about the “reduction in Sorbin and SH3 domain containing 2 (Sorbs2)” value ([5]; α1C-APEX2 cardiomyocytes, isoproterenol 10 minutes) of the same compound?
Answer: ~57%

Question: What about the “decrease in Rad (proximity labeling, iso vs. no iso)” value ([5]; β2B-APEX2 cardiomyocytes) of the same compound?
Answer: 30%

Question: What about the “increase in PKA catalytic subunit (proximity labeling, iso vs. no iso)” value ([5]; β2B-APEX2 cardiomyocytes) of the same compound?
Answer: 68%

Question: What about the “decrease in Rad (proximity labeling, iso vs. no iso)” value [6] of the same compound?
Answer: 36%

Question: And the “effect on the amount of Rad (whole-cell, not proximity labeled)” value [7]?
Answer: no significant effect; also recorded: unchanged

Question: What about the “decrease of Rad localized at the membrane” value [8] of the same compound?
Answer: 21%±3%

Question: And the “increase of cytosolic Rad” value [8]?
Answer: 20%±5%
